Source: ChEMBL document CHEMBL1201862, “PubChem BioAssay data set” (2004)
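Where inhibition never reached the appropriate level, the endpoint shown equals the highest concentration tested. Otherwise, values were interpolated linearly from a five-concentration, 48-hour dose response in 96-well plates. GI50 = concentration required for 50% inhibition of growth.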 Active and inactive are the calls of the source. No stated cut-off is given here; in the data, active = GI50 up to about 1.1 µM and inactive = higher.

Columns and labels:
Assay in all cases: inhibition of tumour cell growth, NCI panel, 48 h
Malme-3M = tested on: Malme-3M
NCI/ADR-RES = tested on: NCI/ADR-RES
NCI-H226 = tested on: NCI-H226
HOP-18 = tested on: HOP-18
A498 = tested on: A498
MCF7 = tested on: MCF7
OVCAR-4 = tested on: OVCAR-4
HCC 2998 = tested on: HCC 2998
HOP-92 = tested on: HOP-92
SNB-78 = tested on: SNB-78
NCI-H522 = tested on: NCI-H522
M14 = tested on: M14
SR = tested on: SR

Measured: GI50

C/C=C/C1=CC(=O)C(O)C1O (centres undefined)
inactive: Malme-3M 27.1 µM | NCI/ADR-RES 25.5 µM | NCI-H226 24.1 µM | HOP-18 12.4 µM | A498 8.28 µM | MCF7 30.8 µM | OVCAR-4 37.1 µM | HCC 2998 27.5 µM | HOP-92 27.2 µM | SNB-78 57.8 µM | NCI-H522 5.86 µM

Cc1cccc(C(C)C)c1NC(=O)/C(Cc1c([N+](=O)[O-])cccc1[N+](=O)[O-])=N/NC(=O)CC#N
inactive: Malme-3M > 100 µM | NCI-H226 > 100 µM | HOP-18 > 100 µM | M14 > 100 µM | A498 44.4 µM | HCC 2998 > 100 µM | HOP-92 41.6 µM | NCI-H522 > 100 µM

O=C(Nc1c(C(=O)NC2CCCCC2)[nH]c(=O)[nH]c1=O)c1ccc(Cl)cc1
inactive: Malme-3M > 100 µM | SR > 100 µM | NCI-H226 > 100 µM | HOP-18 > 100 µM | M14 > 100 µM | OVCAR-4 > 100 µM | HOP-92 > 100 µM | NCI-H522 44.3 µM

N#C/C(=C1/Sc2c(nc[nH]c2=O)N1c1ccccc1)c1nc2ccccc2[nH]1
inactive: Malme-3M > 100 µM | SR > 100 µM | M14 > 100 µM | A498 > 100 µM | OVCAR-4 > 100 µM | HCC 2998 > 100 µM | HOP-92 > 100 µM | SNB-78 > 100 µM | NCI-H522 > 100 µM

Cc1csc(/N=C(/NCCN2CCOCC2)Nc2nc(C)cs2)n1
inactive: Malme-3M > 100 µM | NCI/ADR-RES > 100 µM | NCI-H226 > 100 µM | HOP-18 > 100 µM | A498 > 57.9 µM | MCF7 > 84.5 µM | OVCAR-4 > 100 µM | HCC 2998 > 100 µM | HOP-92 > 88.9 µM | SNB-78 > 100 µM | NCI-H522 > 100 µM

c1ccc2c(c1)CCCC/C2=N/OCC1CO1 (centres undefined)
inactive: Malme-3M 67.6 µM | SR 26.4 µM | NCI-H226 35.3 µM | HOP-18 34.7 µM | A498 > 100 µM | HCC 2998 > 100 µM | HOP-92 22.3 µM | SNB-78 57.4 µM

COC(=O)C(C/C=C(\C)c1ccc(Cl)cc1)C(C)=O (centres undefined)
inactive: Malme-3M 40.3 µM | NCI/ADR-RES 23.7 µM | NCI-H226 24.6 µM | HOP-18 40.3 µM | A498 34.4 µM | MCF7 37.7 µM | OVCAR-4 27.2 µM | HCC 2998 75.9 µM | HOP-92 19.5 µM | SNB-78 > 56.8 µM | NCI-H522 22.5 µM

C=CC(C)C1(CCCOCc2ccccc2)C(=S)N2CCC3(CC24CCCC14)OCCO3 (centres undefined)
inactive: Malme-3M 47.5 µM | NCI-H226 36.6 µM | HOP-18 > 100 µM | A498 5.01 µM | OVCAR-4 9.46 µM | HCC 2998 56.1 µM | SNB-78 9.48 µM | NCI-H522 7.31 µM
